Measured values as given in US7868030B2, “FBPase inhibitors for diabetes” (Hoffmann-La Roche Inc., priority 2006, dated 2011).

Target: T1, human liver FBPase (Homo sapiens, UniProt P09467)
T1 construct: made in house; host or cells: E. coli
T1 sequence (P09467 2-338 limits assumed): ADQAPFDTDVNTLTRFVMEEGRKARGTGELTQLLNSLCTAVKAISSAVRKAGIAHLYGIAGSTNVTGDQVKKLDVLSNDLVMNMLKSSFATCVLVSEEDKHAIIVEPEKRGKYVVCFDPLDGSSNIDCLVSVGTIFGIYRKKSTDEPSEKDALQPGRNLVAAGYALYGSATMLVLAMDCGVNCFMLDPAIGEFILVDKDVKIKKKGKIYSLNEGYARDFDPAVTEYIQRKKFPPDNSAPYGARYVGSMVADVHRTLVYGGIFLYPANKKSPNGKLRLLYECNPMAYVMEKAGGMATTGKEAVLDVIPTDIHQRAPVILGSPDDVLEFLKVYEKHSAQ
Assay: FBPase assay (inorganic phosphate release, malachite green)
Assay type: biochemical
Details: recombinant human liver FBPase, 50 μM fructose-1,6-bisphosphate, read-out at 620 nm
Experimental: The following tests were carried out for evaluating the inhibitory activity of the compounds of the present invention against human liver FBPase (Swissprot Data base reference PO9467, entry F16P_HUMAN).
Enzyme preparation: Human liver FBPase cDNA (NM_000507) was purchased from Origene Technologies, Inc, subcloned in a vector for expression in E. Coli., and sequenced. Recombinant human liver FBPase (hlFBPase) was purified according to the following protocol that uses heat denaturation similarly to that described by El-Maghrabi et. al. [El-Maghrabi, M. R. et al. “Isolation of a human liver fructose-1,6-bisphosphatase cDNA and expression of the protein in Escherichia coli.” J Biol Chem 268:9466-9472, 1993.]. […] Purity of the enzyme preparation was >90% as assessed by Mass spectrometry.
In vitro activity: Recombinant human liver FBPase (hlFBPase) activity was assayed through measuring the inorganic phosphate release that results from the hydrolysis of Fructose-1,6-bisphosphate by the enzyme. […] Anal. Biochem., 171:266-270, 1988], inorganic phosphate can be readily quantified by spectrophotometry at 620 nm after complexation with ammonium molybdate/malachite green reagent. […] Under these conditions, the assay was linear with time and able to detect FBPase inhibition after spectrophotometric read-out at 620 nm.

Row | IC50 [nM] | SMILES
1 | 250 | Cc1cccc(S(=O)(=O)NC(=O)Nc2ncc(Br)s2)c1 [Example 5, N-[(5-Bromo-1,3-thiazol-2-yl)carbamoyl]-3-methylbenzenesulfonamide]
2 | 65 | COc1ccc(-c2sc(S(=O)(=O)NC(=O)Nc3ncc(Br)s3)cc2C)cc1 [Example 52, N-[(5-Bromo-1,3-thiazol-2-yl)carbamoyl]-5-(4-methoxyphenyl)-4-methyl-thiophene-2-sulfonamide]
